Molecules are shown by their SMILES. pKi: −log10 of the molar value.

This experiment concerns the target T1, human CRTH2 (Homo sapiens, UniProt Q9Y5Y4).
T1 sequence (Q9Y5Y4 1-395): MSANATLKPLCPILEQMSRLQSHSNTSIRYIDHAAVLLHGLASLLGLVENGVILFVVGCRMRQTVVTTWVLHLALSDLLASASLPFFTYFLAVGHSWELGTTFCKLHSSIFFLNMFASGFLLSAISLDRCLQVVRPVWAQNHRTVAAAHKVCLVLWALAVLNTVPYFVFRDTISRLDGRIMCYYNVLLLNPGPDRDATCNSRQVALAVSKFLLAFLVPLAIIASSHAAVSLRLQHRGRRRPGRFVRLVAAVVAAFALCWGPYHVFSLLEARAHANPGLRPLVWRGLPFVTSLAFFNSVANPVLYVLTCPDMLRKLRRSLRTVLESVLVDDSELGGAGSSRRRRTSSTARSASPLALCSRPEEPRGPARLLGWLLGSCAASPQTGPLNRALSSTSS
Briefly: CRTH-2 binding assay (scintillation proximity assay, inhibition of 3H-PGD2 binding). The arrangement: expressed in transfected cells; host or cells: HEK 293EBNA-hCRTH2 (membrane preparation). The note with it: inhibition of 3H-PGD2 (3.6 nM) binding to HEK 293EBNA-hCRTH2 membranes; Ki calculated from IC50. The protocol:
A CRTH2 binding assay was developed to measure the ability of compounds to inhibit the binding of PGD2 to human CRTH2 using a scintillation proximity assay.
Membranes containing hCRTH2 receptors were prepared from HEK 293EBNA-hCRTH2 cells (a HEK 293EBNA cell line stably expressing human CRTH2). The cells were grown to confluency, harvested and washed with PBS. The cells were resuspended in 10 mM Hepes pH 7.4, 1 mM EDTA and protease inhibitors and incubated for 30 min on ice. The cells were homogenized and centrifuged for 10 min at 1000×g. The supernate was centrifuged for 30 min at 100,000×g and the membrane pellet was then resusupended in 10 mM Hepes pH 7.4 and 1 mM EDTA. The protein concentration of the membrane preparation was determined by Bradford assay (Bio-Rad).
The ability of compounds to inhibit the interaction of PGD2 to human CRTH2 was determined at seven compound concentrations. Compounds were serially diluted in DMSO then diluted into CRTH2 buffer without glycerol (10 mM Hepes pH 7.4, 1 mM EDTA, 10 mM MnCl2) to six times the final desired concentration. 20 μL of the diluted compounds were transferred into non-surface binding 96 well plates (Corning). Each concentration was done in triplicate. In addition to test compounds, each plate contained 12 control wells. Six of these wells contained 20 μL of CRTH2 buffer without glycerol. These wells were used to measure total binding. Six wells contained 20 μL of CRTH2 buffer without glycerol plus 1.5 mM indomethacin. These wells were used to measure non-specific binding. Next, HEK 293EBNA-hCRTH2 membranes were resuspended in CRTH2 buffer with glycerol (10 mM Hepes pH 7.4, 1 mM EDTA, 10 mM MnCl2, 25% glycerol) so that the final concentration was approximately 20 μg protein/100 μL. Polylysine coated yttrium silicate SPA beads (Amershamn) were added to the membrane mix to a concentration of 0.4 mg/100 μL and finally ^3H-PGD2 was added to the membrane/SPA bead mix to 3.6 nM. 100 μL of the membrane/SPA bead/^3H-PGD2 mix was added to each well of the non-surface binding plates containing the diluted compound plus controls. The plates were incubated for 2 hours at room temperature with shaking and then the plates were counted on a Microbeta scintillation counter (Perkin Elmer) for 1 min per well.
IC50 values were determined from the experimental results by nonlinear regression using Prism 4.0 software. The IC50 values were then used in conjunction with the […] for hCRTH2 and the ^3H-PGD2 concentration used in the experiment to calculate the Ki for each compound.
As a reminder, the pKi is −log10 of the Ki, conventionally taken in molar units. Consider `O=C(O)Cn1cc(C2c3ccccc3S(=O)(=O)N2Cc2ccccc2-c2ccccc2)c2ccccc21` (stereo not drawn) [Example 32, [3-(2-Biphenyl-2-ylmethyl-1,1-dioxo-2,3-dihydro-1H-1λ^6-benzo[d]isothiazol-3-yl)-indol-1-yl]-acetic acid], for which the pKi was more than 6.00.

As to `Cc1c(C2=NN(C(C)C)S(=O)(=O)c3ccccc32)c2cc(F)ccc2n1CC(=O)O` [Example 93, [3-(2-Isopropyl-1,1-dioxo-1,2-dihydro-1λ^6-benzo[e][1,2,3]thiadiazin-4-yl)-5-fluoro-2-methyl-indol-1-yl]-acetic acid], the negative logarithm of the Ki (pKi) is more than 7.00.

`Cc1c(C2c3ccccc3S(=O)(=O)N2CC(=O)Nc2ccc(F)cc2)c2ccccc2n1CC(=O)O` (stereo not drawn) [Example 37, (3-{2-[(4-Fluoro-phenylcarbamoyl)-methyl]-1,1-dioxo-2,3-dihydro-1H-1λ^6-benzo[d]isothiazol-3-yl}-2-methyl-indol-1-yl)-acetic acid]: the pKi is more than 5.00.

For the compound `Cc1c(C2=NN(CCc3ccccc3)S(=O)(=O)c3ccccc32)c2ccccc2n1CC(=O)O` [Example 19, [3-(1,1-Dioxo-2-phenethyl-1,2-dihydro-1λ^6-benzo[e][1,2,3]thiadiazin-4-yl)-2-methyl-indol-1-yl]-acetic acid], the pKi was more than 7.00.

For the compound `Cc1ccc2c(c1)c(C1c3ccccc3S(=O)(=O)N1Cc1cccc(C(F)(F)F)c1)cn2CC(=O)O` (stereo not drawn) [Example 51, {3-[1,1-Dioxo-2-(3-trifluoromethyl-benzyl)-2,3-dihydro-1H-1λ^6-benzo[d]isothiazol-3-yl]-5-methyl-indol-1-yl}-acetic acid], the negative-log Ki (pKi) was more than 5.00.

Take `Cc1nc(CN2C(c3c(C)n(CC(=O)O)c4ccccc34)c3ccccc3S2(=O)=O)cs1` (stereo not drawn) [Example 42, {2-Methyl-3-[2-(2-methyl-thiazol-4-ylmethyl)-1,1-dioxo-2,3-dihydro-1H-1λ^6benzo[d]isothiazol-3-yl]-indol-1-yl}-acetic acid]: the negative logarithm of the Ki (pKi) is more than 6.00.

On to `Cc1c(C2c3ccccc3S(=O)(=O)N2C(C)C)c2ccccc2n1CC(=O)O` (stereo not drawn) [Example 47, [3-(2-Isopropyl-1,1-dioxo-2,3-dihydro-1H-1λ^6-benzo[d]isothiazol-3-yl)-2-methyl-indol-1-yl]-acetic acid], for which the pKi was more than 6.00.

Take `O=C(O)Cn1cc(C2c3ccccc3S(=O)(=O)N2Cc2ccc3ccccc3n2)c2ccccc21` (stereo not drawn) [Example 30, [3-(1,1-Dioxo-2-quinolin-2-ylmethyl-2,3-dihydro-1H-1λ^6-benzo[d]isothiazol-3-yl)-indol-1-yl]-acetic acid]: the pKi was more than 5.00.

`Cc1ccc2c(c1)c(C1c3ccccc3S(=O)(=O)N1Cc1nc3ccccc3s1)cn2CC(=O)O` (stereo not drawn) [Example 48, [3-(2-Benzothiazol-2-ylmethyl-1,1-dioxo-2,3-dihydro-1H-1λ^6-benzo[d]isothiazol-3-yl)-5-methyl-indol-1-yl]-acetic acid]: the negative-log Ki (pKi) is more than 6.00.

Turning to `COCCCN1C(c2cn(CC(=O)O)c3ccc(C)cc23)c2ccccc2S1(=O)=O` (stereo not drawn) [Example 52, {3-[2-(3-Methoxy-propyl)-1,1-dioxo-2,3-dihydro-1H-1λ^6-benzo[d]isothiazol-3-yl]-5-methyl-indol-1-yl}-acetic acid], the negative logarithm of the Ki (pKi) is more than 5.00.

In the case of `CC(C)CCN1C(c2cn(CC(=O)O)c3ccccc23)c2ccccc2S1(=O)=O` (stereo not drawn) [Example 29, {3-[2-(3-Methyl-butyl)-1,1-dioxo-2,3-dihydro-1H-1λ^6-benzo[d]isothiazol-3-yl]-indol-1-yl}-acetic acid], the negative logarithm of the Ki (pKi) is more than 5.00.

In the case of `N#Cc1ccc2c(c1)c(C1NS(=O)(=O)c3ccccc31)cn2CC(=O)O` (stereo not drawn) [Example 9, [5-Cyano-3-(1,1-dioxo-2,3-dihydro-1H-1λ^6-benzo[d]isothiazol-3-yl)-indol-1-yl]-acetic acid], the pKi was more than 5.00.

In the case of `O=C(O)Cn1cc(C2NS(=O)(=O)c3ccccc32)c2cc(Cl)ccc21` (stereo not drawn) [Example 5, [5-Chloro-3-(1,1-dioxo-2,3-dihydro-1H-1λ^6-benzo[d]isothiazol-3-yl)-indol-1-yl]-acetic acid], the negative-log Ki (pKi) is more than 5.00.

Take `Cc1c(C2NS(=O)(=O)c3ccccc32)c2cc(F)ccc2n1CC(=O)O` (stereo not drawn) [Example 10, [3-(1,1-Dioxo-2,3-dihydro-1H-1λ^6-benzo[d]isothiazol-3-yl)-5-fluoro-2-methyl-indol-1-yl]-acetic acid]: the negative-log Ki (pKi) was more than 6.00.

For `CN1N=C(c2cn(CC(=O)O)c3ccccc23)c2ccccc2S1(=O)=O` [Example 18, [3-(2-Methyl-1,1-dioxo-1,2-dihydro-1λ6-benzo[e][1,2,3]thiadiazin-4-yl)-indol-1-yl]-acetic acid], the pKi is more than 5.00.

In the case of `Cc1c(C2(C)c3ccccc3S(=O)(=O)N2CCOc2ccccc2)c2ccccc2n1CC(=O)O` (stereo not drawn) [Example 67, {2-Methyl-3-[3-methyl-1,1-dioxo-2-(2-phenoxy-ethyl)-2,3-dihydro-1H-1-benzo[d]isothiazol-3-yl]-indol-1-yl}-acetic acid], the negative logarithm of the Ki (pKi) was more than 6.00.

As to `Cc1noc(C)c1CN1C(C)(c2c(C)n(CC(=O)O)c3ccccc23)c2ccccc2S1(=O)=O` (stereo not drawn) [Example 65, {3-[2-(3,5-Dimethyl-isoxazol-4-ylmethyl)-3-methyl-1,1-dioxo-2,3-dihydro-1H-1λ^6-benzo[d]isothiazol-3-yl]-2-methyl-indol-1-yl}-acetic acid], the pKi is more than 7.00.

As for `Cc1onc(-c2ccccc2)c1CN1C(c2c(C)n(CC(=O)O)c3ccccc23)c2ccccc2S1(=O)=O` (stereo not drawn) [Example 36, {2-Methyl-3-[2-(5-methyl-3-phenyl-isoxazol-4-ylmethyl)-1,1-dioxo-2,3-dihydro-1H-1λ^6-benzo[d]isothiazol-3-yl]-indol-1-yl}-acetic acid], the negative logarithm of the Ki (pKi) was more than 7.00.

`Cc1c(C2=NN(CCOc3ccccc3)S(=O)(=O)c3ccccc32)c2cc(F)ccc2n1CC(=O)O` [Example 88, {3-[2-(2-Phenoxy-ethyl)-1,1-dioxo-1,2-dihydro-1λ^6-benzo[e][1,2,3]thiadiazin-4-yl]-5-fluoro-2-methyl-indol-1-yl}-acetic acid]: the negative logarithm of the Ki (pKi) was more than 6.00.

On to `Cc1c(C2=NN(Cc3ccccc3F)S(=O)(=O)c3ccccc32)c2cc(F)ccc2n1CC(=O)O` [Example 81, {3-[2-(2-Fluoro-benzyl)-1,1-dioxo-1,2-dihydro-1λ^6-benzo[e][1,2,3]thiadiazin-4-yl]-5-fluoro-2-methyl-indol-1-yl}-acetic acid], for which the pKi was more than 7.00.

`Cc1noc(C)c1CN1C(=O)c2ccccc2C1c1cn(CC(=O)O)c2ccccc12` (stereo not drawn) [Example 22, {3-[2-(3,5-Dimethyl-isoxazol-4-ylmethyl)-3-oxo-2,3-dihydro-1H-isoindol-1-yl]-indol-1-yl}-acetic acid]: the negative-log Ki (pKi) was more than 6.00.

With `Cc1c(-c2nn(CC3COc4ccccc4O3)c(=O)c3ccccc23)c2cc(Cl)ccc2n1CC(=O)O` (stereo not drawn) [Example 27, {5-Chloro-3-[3-(2,3-dihydro-benzo[1,4]dioxin-2-ylmethyl)-4-oxo-3,4-dihydro-phthalazin-1-yl]-2-methyl-indol-1-yl}-acetic acid], the pKi was more than 7.00.

Take `Cc1noc(C)c1CN1C(=O)c2ccccc2C1c1c(C)n(CC(=O)O)c2ccccc12` (stereo not drawn) [Example 68, {3-[2-(3,5-Dimethyl-isoxazol-4-ylmethyl)-3-oxo-2,3-dihydro-1H-isoindol-1-yl]-2-methyl-indol-1-yl}-acetic acid]: the negative logarithm of the Ki (pKi) was more than 6.00.

Turning to `CCCCN1N=C(c2c(C)n(CC(=O)O)c3ccccc23)[C@H]2CC=CC[C@H]2C1=O` (stereo in doubt) [Example 70, [3-(3-Butyl-4-oxo-3,4,4a,5,8,8a-hexahydro-phthalazin-1-yl)-2-methyl-indol-1-yl]-acetic acid], the pKi is more than 6.00.

Values taken from patent publication US7981912B2, “Indole acetic acids exhibiting CRTH2 receptor antagonism and uses thereof” (Wyeth LLC, priority 2004, dated 2011).
